Experimental data from patent US6737383B1, “Herbicidal oxadiazolidines” (priority 1999, dated 2004).

What was measured:
bedstraw = test: Test B pre/postemergence bedstraw; type: in vivo, Galium aparine
Procedure, shortened: (§1)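 Herbicidal effect was estimated by eye on a ten-point control scale after plants spent twelve to sixteen days in a greenhouse following soil or foliar treatment. Foliar sprays targeted plants at one to four leaves; all doses were formulated in a non-phytotoxic solvent with surfactant.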

giant foxtail = test: Test B pre/postemergence giant foxtail; type: in vivo, Setaria faberii
Procedure, shortened: as §1

duck salad = test: Test B flood test duck salad; type: in vivo, Heteranthera limosa
Procedure, shortened: (§2)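 Plants were grown to the 2-leaf stage before treatment with test chemical, then held in a greenhouse for twelve to sixteen days. Injury was visually rated against untreated controls on a 0–10 scale, where 0 is no effect and 10 is complete control.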

cocklebur = test: Test B pre/postemergence cocklebur; type: in vivo, Xanthium strumarium
Procedure, shortened: as §1

rape = test: Test B pre/postemergence rape; type: in vivo, Brassica napus
Procedure, shortened: as §1

wheat = test: Test B pre/postemergence wheat; type: in vivo, Triticum aestivum
Procedure, shortened: as §1

bamyardgrass = test: Test B flood test barnyardgrass; type: in vivo, Echinochloa crus-galli
Procedure, shortened: as §2

wild oat = test: Test B pre/postemergence wild oat; type: in vivo, Avena fatua
Procedure, shortened: as §1

velvetleaf = test: Test B pre/postemergence velvetleaf; type: in vivo, Abutilon theophrasti
Procedure, shortened: as §1

soybean = test: Test B pre/postemergence soybean; type: in vivo, Glycine max
Procedure, shortened: as §1

sugar beet = test: Test B pre/postemergence sugar beet; type: in vivo, Beta vulgaris
Procedure, shortened: as §1

rice = test: Test B flood test rice; type: in vivo, Oryza sativa
Procedure, shortened: as §2

blackgrass = test: Test B pre/postemergence blackgrass; type: in vivo, Alopecurus myosuroides
Procedure, shortened: as §1

pigweed = test: Test B pre/postemergence pigweed; type: in vivo, Amaranthus retroflexus
Procedure, shortened: as §1

smallflower flatsedge = test: Test B flood test smallflower flatsedge; type: in vivo, Cyperus difformis
Procedure, shortened: as §2

surinam grass = test: Test B pre/postemergence surinam grass; type: in vivo, Brachiaria decumbens
Procedure, shortened: as §1

crabgrass = test: Test B pre/postemergence crabgrass; type: in vivo, Digitaria sanguinalis
Procedure, shortened: as §1

corn = test: Test B pre/postemergence corn; type: in vivo, Zea mays
Procedure, shortened: as §1

purple nutsedge = test: Test B pre/postemergence purple nutsedge; type: in vivo, Cyperus rotundus
Procedure, shortened: as §1

morningglory = test: Test B pre/postemergence morningglory; type: in vivo, Ipomoea hederacea
Procedure, shortened: as §1

[1] = Postemergence, Rate 62 g/ha, scale of 0 to 10, 0 is no effect, 10 is complete control
[2] = Postemergence, Rate 125 g/ha, scale of 0 to 10 where 0 is no effect and 10 is complete control
[3] = Postemergence, Rate 250 g/ha, scale of 0 to 10, 0 is no effect, 10 is complete control
[4] = Postemergence, Rate 500 g/ha, scale of 0 to 10 where 0 is no effect and 10 is complete control
[5] = Preemergence, Rate 62 g/ha, scale 0 to 10 (0 no effect, 10 complete control)
[6] = Preemergence, Rate 125 g/ha, scale of 0 to 10 where 0 is no effect and 10 is complete control
[7] = Preemergence, Rate 500 g/ha, scale of 0 to 10 where 0 is no effect and 10 is complete control
[8] = Rate 62 g/ha, flood test species, Pre-emergence, visual evaluation after twelve to sixteen days
[9] = Rate 125 g/ha, under heading Pre-emergence, flood test species, visual evaluation after twelve to sixteen days
[10] = Rate 250 g/ha, Pre-emergence (flood test species), scale 0 to 10, 0 is no effect, 10 is complete control
[11] = Rate 500 g/ha, Pre-emergence section of Table B, 0 to 10 scale (0 no effect, 10 complete control)

Compound: CC(C)N(C(=O)n1oc(=O)n(CC(=O)N(C)C)c1=O)c1ccccc1 [Compound 588]
- Bedstraw plant response rating (bedstraw; [1]): 0
- Bedstraw plant response rating (0 to 10 scale) (bedstraw; Preemergence, Rate 250 g/ha): 0
- Giant foxtail plant response rating (giant foxtail; [1]): 0
- Plant response rating, Giant foxtail (giant foxtail; [2]): 4
- Giant foxtail plant response rating (giant foxtail; [3]): 8
- Plant response rating, Giant foxtail (giant foxtail; [4]): 8
- Giant foxtail plant response rating (giant foxtail; [5]): 7
- Giant foxtail plant response rating (giant foxtail; [6]): 8
- Giant foxtail plant response rating (giant foxtail; [7]): 10
- Plant response rating, Ducksalad (0 to 10 scale, 0 is no effect, 10 is complete control) (duck salad; [8]): 0
- Ducksalad plant response rating (0 to 10 scale, 0 is no effect, 10 is complete control) (duck salad; [9]): 0
- Ducksalad plant response rating (duck salad; [10]): 0
- Ducksalad plant response rating (duck salad; [11]): 0
- Cocklebur plant response rating (cocklebur; [1]): 0
- Plant response rating, Cocklebur (cocklebur; [2]): 0
- Cocklebur plant response rating (cocklebur; [3]): 0
- Plant response rating, Cocklebur (cocklebur; [4]): 0
- Cocklebur plant response rating (cocklebur; [5]): 0
- Cocklebur plant response rating (cocklebur; [6]): 0
- Cocklebur plant response rating (0 to 10 scale) (cocklebur; Preemergence, Rate 250 g/ha): 0
- Cocklebur plant response rating (cocklebur; [7]): 0
- Rape plant response rating (rape; [1]): 0
- Plant response rating, Rape (rape; [2]): 0
- Rape plant response rating (rape; [3]): 0
- Plant response rating, Rape (rape; [4]): 0
- Rape plant response rating (rape; [5]): 0
- Rape plant response rating (rape; [6]): 0
- Rape plant response rating (rape; [7]): 0
- Plant response rating, Wheat (wheat; [2]): 0
- Wheat plant response rating (wheat; [3]): 0
- Plant response rating, Wheat (wheat; [4]): 3
- Wheat plant response rating (wheat; [5]): 0
- Wheat plant response rating (wheat; [6]): 2
- Wheat plant response rating (wheat; [7]): 8
- Plant response rating, Barnyardgrass (0 to 10 scale, 0 is no effect, 10 is complete control) (bamyardgrass; [8]): 0
- Barnyardgrass plant response rating (0 to 10 scale, 0 is no effect, 10 is complete control) (bamyardgrass; [9]): 0
- Barnyardgrass plant response rating (bamyardgrass; [10]): 0
- Barnyardgrass plant response rating (bamyardgrass; [11]): 0
- Plant response rating, Wild oats (wild oat; [2]): 0
- Wild oats plant response rating (wild oat; [3]): 0
- Plant response rating, Wild oats (wild oat; [4]): 0
- Wild oats plant response rating (wild oat; [5]): 0
- Wild oats plant response rating (wild oat; [6]): 0
- Wild oats plant response rating (wild oat; [7]): 7
- Plant response rating, Velvetleaf (velvetleaf; [2]): 0
- Velvetleaf plant response rating (velvetleaf; [3]): 0
- Plant response rating, Velvetleaf (velvetleaf; [4]): 7
- Velvetleaf plant response rating (velvetleaf; [5]): 0
- Velvetleaf plant response rating (velvetleaf; [6]): 0
- Velvetleaf plant response rating (velvetleaf; [7]): 5
- Plant response rating, Soybean (soybean; [2]): 4
- Soybean plant response rating (soybean; [3]): 4
- Plant response rating, Soybean (soybean; [4]): 7
- Soybean plant response rating (soybean; [5]): 0
- Soybean plant response rating (soybean; [6]): 0
- Soybean plant response rating (soybean; [7]): 5
- Plant response rating, Sugarbeets (sugar beet; [2]): 0
- Sugarbeets plant response rating (sugar beet; [3]): 0
- Plant response rating, Sugarbeets (sugar beet; [4]): 0
- Sugarbeets plant response rating (sugar beet; [5]): 0
- Sugarbeets plant response rating (sugar beet; [6]): 0
- Sugarbeets plant response rating (sugar beet; [7]): 6
- Plant response rating, Rice (0 to 10 scale, 0 is no effect, 10 is complete control) (rice; [8]): 0
- Rice plant response rating (0 to 10 scale, 0 is no effect, 10 is complete control) (rice; [9]): 0
- Rice plant response rating (rice; [10]): 0
- Rice plant response rating (rice; [11]): 0
- Blackgrass plant response rating (blackgrass; [1]): 0
- Plant response rating, Blackgrass (blackgrass; [2]): 0
- Blackgrass plant response rating (blackgrass; [3]): 6
- Plant response rating, Blackgrass (blackgrass; [4]): 8
- Blackgrass plant response rating (blackgrass; [5]): 0
- Blackgrass plant response rating (blackgrass; [6]): 3
- Blackgrass plant response rating (0 to 10 scale) (blackgrass; Preemergence, Rate 250 g/ha): 5
- Blackgrass plant response rating (blackgrass; [7]): 8
- Plant response rating, Redroot pigweed (pigweed; [2]): 0
- Redroot pigweed plant response rating (pigweed; [3]): 0
- Plant response rating, Redroot pigweed (pigweed; [4]): 0
- Redroot pigweed plant response rating (pigweed; [5]): 0
- Redroot pigweed plant response rating (pigweed; [6]): 1
- Redroot pigweed plant response rating (pigweed; [7]): 9
- Plant response rating, S. Flatsedge (0 to 10 scale, 0 is no effect, 10 is complete control) (smallflower flatsedge; [8]): 0
- S. Flatsedge plant response rating (0 to 10 scale, 0 is no effect, 10 is complete control) (smallflower flatsedge; [9]): 0
- S. Flatsedge plant response rating (smallflower flatsedge; [10]): 0
- S. Flatsedge plant response rating (smallflower flatsedge; [11]): 0
- B. signalgrass plant response rating (surinam grass; [1]): 0
- Plant response rating, B. signalgrass (surinam grass; [2]): 0
- B. signalgrass plant response rating (surinam grass; [3]): 4
- Plant response rating, B. signalgrass (surinam grass; [4]): 8
- B. signalgrass plant response rating (surinam grass; [5]): 0
- B. signalgrass plant response rating (surinam grass; [6]): 1
- B. signalgrass plant response rating (0 to 10 scale, 0 is no effect, 10 is complete control) (surinam grass; Preemergence, Rate 250 g/ha): 5
- B. signalgrass plant response rating (surinam grass; [7]): 8
- Crabgrass plant response rating (crabgrass; [1]): 0
- Plant response rating, Crabgrass (crabgrass; [2]): 2
- Crabgrass plant response rating (crabgrass; [3]): 6
- Crabgrass plant response rating (crabgrass; [5]): 3
- Crabgrass plant response rating (crabgrass; [6]): 6
- Crabgrass plant response rating (crabgrass; [7]): 9
- Corn plant response rating (corn; [1]): 0
- Plant response rating, Corn (corn; [2]): 0
- Corn plant response rating (corn; [3]): 0
- Plant response rating, Corn (corn; [4]): 0
- Corn plant response rating (corn; [5]): 0
- Corn plant response rating (corn; [6]): 0
- Corn plant response rating (0 to 10 scale) (corn; Preemergence, Rate 250 g/ha): 0
- Corn plant response rating (corn; [7]): 5
- Nutsedge plant response rating (purple nutsedge; [1]): 0
- Plant response rating, Nutsedge (purple nutsedge; [2]): 0
- Plant response rating, Nutsedge (purple nutsedge; [4]): 0
- Nutsedge plant response rating (purple nutsedge; [5]): 0
- Nutsedge plant response rating (purple nutsedge; [6]): 0
- Nutsedge plant response rating (purple nutsedge; [7]): 0
- Morningglory plant response rating (morningglory; [1]): 7
- Plant response rating, Morningglory (morningglory; [2]): 7
- Morningglory plant response rating (morningglory; [3]): 10
- Plant response rating, Morningglory (morningglory; [4]): 10
- Morningglory plant response rating (morningglory; [5]): 0
- Morningglory plant response rating (morningglory; [6]): 0
- Morningglory plant response rating (morningglory; [7]): 0
